Numbers after ± are expanded uncertainties.
Assay: molar enthalpy of vaporization or sublimation
Conditions: 298.15 K; Crystal; Static calorimetry

| molar enthalpy [kJ/mol] | SMILES |
| --- | --- |
| 92 ± 2.2 | c1ccc2c(c1)Cc1ccccc1O2 [10H-9-oxaanthracene] |
| 107 ± 3.6 | O=C1c2ccccc2Cc2ccccc21 [9(10H)-anthracenone] |
